Tested on: peptide-specific IgG in sera of cancer patients and healthy donors
Test: Measurement of anti-peptide IgG in plasma by LUMINEX multiplexed flow cytometric assay
Format: binding, human
Conditions: for Total: healthy donors with significant peptide-reactive IgG / donors tested: 10 healthy donors; for Total: healthy donors with significant peptide-reactive IgG / donors tested / Total: cancer patients with significant peptide-reactive IgG / patients tested: significant when fluorescence intensity exceeded 100 at 1/100 dilution; for Total: cancer patients with significant peptide-reactive IgG / patients tested: 71 cancer patients
Outline: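 Plasma diluted 1/100 incubated with peptide-coupled colour-coded beads 2 h at RT, then biotinylated goat anti-human IgG (γ-chain) 1 h and streptavidin-PE 30 min; fluorescence read by multiplexed flow cytometry, >100 counted significant. Specificity checked by three rounds of absorption on corresponding versus irrelevant SCCA peptide.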

[1] = serum of Breast Ca. patient #36, 1:100 dilution
[2] = serum of Breast Ca. patient #37, 1:100 dilution
[3] = serum of Breast Ca. patient #38, 1:100 dilution
[4] = serum of Breast Ca. patient #39, 1:100 dilution
[5] = serum of Breast Ca. patient #40, 1:100 dilution
[6] = serum of Breast Ca. patient #41, 1:100 dilution
[7] = serum of Breast Ca. patient #42, 1:100 dilution
[8] = serum of Breast Ca. patient #43, 1:100 dilution
[9] = serum of Breast Ca. patient #44, 1:100 dilution
[10] = serum of Breast Ca. patient #45, 1:100 dilution
[11] = serum of Colon Ca. patient #66, 1:100 dilution
[12] = serum of Colon Ca. patient #67, 1:100 dilution
[13] = serum of Colon Ca. patient #68, 1:100 dilution
[14] = serum of Colon Ca. patient #69, 1:100 dilution
[15] = serum of Colon Ca. patient #70, 1:100 dilution
[16] = serum of Colon Ca. patient #71, 1:100 dilution
[17] = serum of Gastric Ca. patient #56, 1:100 dilution
[18] = serum of Gastric Ca. patient #57, 1:100 dilution
[19] = serum of Gastric Ca. patient #58, 1:100 dilution
[20] = serum of Gastric Ca. patient #59, 1:100 dilution
[21] = serum of Gastric Ca. patient #60, 1:100 dilution
[22] = serum of Gastric Ca. patient #61, 1:100 dilution
[23] = serum of Gastric Ca. patient #62, 1:100 dilution
[24] = serum of Gastric Ca. patient #63, 1:100 dilution
[25] = serum of Gastric Ca. patient #64, 1:100 dilution
[26] = serum of Gastric Ca. patient #65, 1:100 dilution
[27] = serum of Healthy Donor #1, 1:100 dilution
[28] = serum of Healthy Donor #2, 1:100 dilution
[29] = serum of Healthy Donor #3, 1:100 dilution
[30] = serum of Healthy Donor #4, 1:100 dilution
[31] = serum of Healthy Donor #5, 1:100 dilution
[32] = serum of Healthy Donor #6, 1:100 dilution
[33] = serum of Healthy Donor #7, 1:100 dilution
[34] = serum of Healthy Donor #8, 1:100 dilution
[35] = serum of Healthy Donor #9, 1:100 dilution
[36] = serum of Healthy Donor #10, 1:100 dilution
[37] = serum of Pancreas Ca. patient #46, 1:100 dilution
[38] = serum of Pancreas Ca. patient #47, 1:100 dilution
[39] = serum of Pancreas Ca. patient #48, 1:100 dilution
[40] = serum of Pancreas Ca. patient #49, 1:100 dilution
[41] = serum of Pancreas Ca. patient #50, 1:100 dilution
[42] = serum of Pancreas Ca. patient #51, 1:100 dilution
[43] = serum of Pancreas Ca. patient #52, 1:100 dilution
[44] = serum of Pancreas Ca. patient #53, 1:100 dilution
[45] = serum of Pancreas Ca. patient #54, 1:100 dilution
[46] = serum of Pancreas Ca. patient #55, 1:100 dilution
[47] = serum of Uterine cervical Ca. patient #1, 1:100 dilution
[48] = serum of Uterine cervical Ca. patient #2, 1:100 dilution
[49] = serum of Uterine cervical Ca. patient #3, 1:100 dilution
[50] = serum of Uterine cervical Ca. patient #4, 1:100 dilution
[51] = serum of Uterine cervical Ca. patient #5, 1:100 dilution
[52] = serum of Uterine cervical Ca. patient #6, 1:100 dilution
[53] = serum of Uterine cervical Ca. patient #7, 1:100 dilution
[54] = serum of Uterine cervical Ca. patient #8, 1:100 dilution
[55] = serum of Uterine cervical Ca. patient #9, 1:100 dilution
[56] = serum of Uterine cervical Ca. patient #10, 1:100 dilution
[57] = serum of Uterine cervical Ca. patient #11, 1:100 dilution
[58] = serum of Uterine cervical Ca. patient #12, 1:100 dilution
[59] = serum of Uterine cervical Ca. patient #13, 1:100 dilution
[60] = serum of Uterine cervical Ca. patient #14, 1:100 dilution
[61] = serum of Uterine cervical Ca. patient #15, 1:100 dilution
[62] = serum of Uterine cervical Ca. patient #16, 1:100 dilution
[63] = serum of Uterine cervical Ca. patient #17, 1:100 dilution
[64] = serum of Uterine cervical Ca. patient #18, 1:100 dilution
[65] = serum of Uterine cervical Ca. patient #19, 1:100 dilution
[66] = serum of Uterine cervical Ca. patient #20, 1:100 dilution
[67] = serum of Uterine cervical Ca. patient #21, 1:100 dilution
[68] = serum of Uterine cervical Ca. patient #22, 1:100 dilution
[69] = serum of Uterine cervical Ca. patient #23, 1:100 dilution
[70] = serum of Uterine cervical Ca. patient #24, 1:100 dilution
[71] = serum of Uterine cervical Ca. patient #25, 1:100 dilution
[72] = serum of Uterine cervical Ca. patient #26, 1:100 dilution
[73] = serum of Uterine cervical Ca. patient #27, 1:100 dilution
[74] = serum of Uterine cervical Ca. patient #28, 1:100 dilution
[75] = serum of Uterine cervical Ca. patient #29, 1:100 dilution
[76] = serum of Uterine cervical Ca. patient #30, 1:100 dilution
[77] = serum of Uterine cervical Ca. patient #31, 1:100 dilution
[78] = serum of Uterine cervical Ca. patient #32, 1:100 dilution
[79] = serum of Uterine cervical Ca. patient #33, 1:100 dilution
[80] = serum of Uterine cervical Ca. patient #34, 1:100 dilution
[81] = serum of Uterine cervical Ca. patient #35, 1:100 dilution

Sequence: LFGEKTYLFL (SCCA 107-116 peptide) [SCCA-derived peptide, position 107-116]
- Total: healthy donors with significant peptide-reactive IgG / donors tested: 5/10
- Total: cancer patients with significant peptide-reactive IgG / patients tested: 27/71
- Specificity of IgG reactive to the peptide (absorption assay: corresponding vs irrelevant SCCA peptide-coated wells (FIG. 3)): confirmed by absorption assay
- Fluorescence intesity [1]: 211
- Fluorescence intesity [2]: 242
- Fluorescence intesity [3]: 146
- Fluorescence intesity [4]: 149
- Fluorescence intesity [5]: 146
- Fluorescence intesity [6]: 269
- Fluorescence intesity [7]: 219
- Fluorescence intesity [8]: 136
- Fluorescence intesity [9]: 146
- Fluorescence intesity [10]: 272
- Fluorescence intesity [11]: 40
- Fluorescence intesity [12]: 49
- Fluorescence intesity [13]: 0
- Fluorescence intesity [14]: 20
- Fluorescence intesity [15]: 91
- Fluorescence intesity [16]: 70
- Fluorescence intesity [17]: 38
- Fluorescence intesity [18]: 114
- Fluorescence intesity [19]: 133
- Fluorescence intesity [20]: 237
- Fluorescence intesity [21]: 24
- Fluorescence intesity [22]: 282
- Fluorescence intesity [23]: 37
- Fluorescence intesity [24]: 29
- Fluorescence intesity [25]: 67
- Fluorescence intesity [26]: 72
- Fluorescence intesity [27]: 53
- Fluorescence intesity [28]: 297
- Fluorescence intesity [29]: 67
- Fluorescence intesity [30]: 0
- Fluorescence intesity [31]: 331
- Fluorescence intesity [32]: 0
- Fluorescence intesity [33]: 0
- Fluorescence intesity [34]: 454
- Fluorescence intesity [35]: 246
- Fluorescence intesity [36]: 106
- Fluorescence intesity [37]: 0
- Fluorescence intesity [38]: 115
- Fluorescence intesity [39]: 431
- Fluorescence intesity [40]: 30
- Fluorescence intesity [41]: 29
- Fluorescence intesity [42]: 2
- Fluorescence intesity [43]: 286
- Fluorescence intesity [44]: 43
- Fluorescence intesity [45]: 126
- Fluorescence intesity [46]: 0
- Fluorescence intesity [47]: 20
- Fluorescence intesity [48]: 106
- Fluorescence intesity [49]: 51
- Fluorescence intesity [50]: 109
- Fluorescence intesity [51]: 55
- Fluorescence intesity [52]: 925
- Fluorescence intesity [53]: 15
- Fluorescence intesity [54]: 30
- Fluorescence intesity [55]: 84
- Fluorescence intesity [56]: 14
- Fluorescence intesity [57]: 25
- Fluorescence intesity [58]: 41
- Fluorescence intesity [59]: 33
- Fluorescence intesity [60]: 22
- Fluorescence intesity [61]: 134
- Fluorescence intesity [62]: 193
- Fluorescence intesity [63]: 65
- Fluorescence intesity [64]: 62
- Fluorescence intesity [65]: 70
- Fluorescence intesity [66]: 90
- Fluorescence intesity [67]: 25
- Fluorescence intesity [68]: 19
- Fluorescence intesity [69]: 75
- Fluorescence intesity [70]: 1457
- Fluorescence intesity [71]: 16
- Fluorescence intesity [72]: 147
- Fluorescence intesity [73]: 39
- Fluorescence intesity [74]: 196
- Fluorescence intesity [75]: 19
- Fluorescence intesity [76]: 41
- Fluorescence intesity [77]: 108
- Fluorescence intesity [78]: 19
- Fluorescence intesity [79]: 170
- Fluorescence intesity [80]: 16
- Fluorescence intesity [81]: 20

Sequence: EYLDAIKKF (SCCA 118-126 peptide) [SCCA-derived peptide, position 118-126]
- Total: healthy donors with significant peptide-reactive IgG / donors tested: 2/10
- Total: cancer patients with significant peptide-reactive IgG / patients tested: 7/71
- Fluorescence intesity [1]: 5
- Fluorescence intesity [2]: 23
- Fluorescence intesity [3]: 1
- Fluorescence intesity [4]: 1
- Fluorescence intesity [5]: 0
- Fluorescence intesity [6]: 123
- Fluorescence intesity [7]: 14
- Fluorescence intesity [8]: 7
- Fluorescence intesity [9]: 0
- Fluorescence intesity [10]: 18
- Fluorescence intesity [11]: 2
- Fluorescence intesity [12]: 0
- Fluorescence intesity [13]: 0
- Fluorescence intesity [14]: 0
- Fluorescence intesity [15]: 0
- Fluorescence intesity [16]: 17
- Fluorescence intesity [17]: 0
- Fluorescence intesity [18]: 0
- Fluorescence intesity [19]: 0
- Fluorescence intesity [20]: 21
- Fluorescence intesity [21]: 0
- Fluorescence intesity [22]: 5
- Fluorescence intesity [23]: 0
- Fluorescence intesity [24]: 0
- Fluorescence intesity [25]: 2
- Fluorescence intesity [26]: 0
- Fluorescence intesity [27]: 0
- Fluorescence intesity [28]: 47
- Fluorescence intesity [29]: 0
- Fluorescence intesity [30]: 0
- Fluorescence intesity [31]: 0
- Fluorescence intesity [32]: 0
- Fluorescence intesity [33]: 0
- Fluorescence intesity [34]: 324
- Fluorescence intesity [35]: 37
- Fluorescence intesity [36]: 0
- Fluorescence intesity [37]: 0
- Fluorescence intesity [38]: 0
- Fluorescence intesity [39]: 404
- Fluorescence intesity [40]: 0
- Fluorescence intesity [41]: 0
- Fluorescence intesity [42]: 0
- Fluorescence intesity [43]: 79
- Fluorescence intesity [44]: 0
- Fluorescence intesity [45]: 0
- Fluorescence intesity [46]: 0
- Fluorescence intesity [47]: 0
- Fluorescence intesity [48]: 0
- Fluorescence intesity [49]: 0
- Fluorescence intesity [50]: 0
- Fluorescence intesity [51]: 0
- Fluorescence intesity [52]: 507
- Fluorescence intesity [53]: 11
- Fluorescence intesity [54]: 24
- Fluorescence intesity [55]: 82
- Fluorescence intesity [56]: 13
- Fluorescence intesity [57]: 20
- Fluorescence intesity [58]: 37
- Fluorescence intesity [59]: 20
- Fluorescence intesity [60]: 16
- Fluorescence intesity [61]: 87
- Fluorescence intesity [62]: 179
- Fluorescence intesity [63]: 45
- Fluorescence intesity [64]: 42
- Fluorescence intesity [65]: 41
- Fluorescence intesity [66]: 100
- Fluorescence intesity [67]: 20
- Fluorescence intesity [68]: 20
- Fluorescence intesity [69]: 44
- Fluorescence intesity [70]: 1169
- Fluorescence intesity [71]: 15
- Fluorescence intesity [72]: 106
- Fluorescence intesity [73]: 28
- Fluorescence intesity [74]: 71
- Fluorescence intesity [75]: 13
- Fluorescence intesity [76]: 25
- Fluorescence intesity [77]: 101
- Fluorescence intesity [78]: 16
- Fluorescence intesity [79]: 114
- Fluorescence intesity [80]: 16
- Fluorescence intesity [81]: 19

— US8030443B2, “Squamous cell carcinoma antigen-derived peptide binding to HLA-A24 molecule” (Kurume University, priority 2005, dated 2011)
